# Like-named read-outs stand apart in the source and are kept apart here.
# Tests used:
# Candida albicans = experiment: Minimal Inhibitory Concentration (MIC) assay, broth microdilution per CLSI; type: cell-based; conditions: Candida albicans, read-out: Minimum Inhibitory Concentrations against Yeast Isolates, Candida albicans;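 further: two read times 24 hr and 48 hr of incubation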
# Method: (§1) The in vitro activities of the inventive compounds (compound(s) herein) against fungi and/or yeasts were determined with isolates Candida albicans, Candida glabrata and Candida parapsilosis. The comparator compounds included fluconazole, caspofungin and amphotericin B.
# (§2) The compounds were supplied as a powder, and were dissolved in dimethylsulfoxide (DMSO) the day of assay. Stock solutions were prepared at 10 mg/mL and diluted to a starting stock concentration of 2.56 mg/mL. Amphotericin B was dissolved in DMSO to a stock concentration of 2.56 mg/mL. Fluconazole was dissolved in deionized water to a stock concentration of 2.56 mg/mL. Caspofungin was received as a stock solution of 3.2 mg/mL in DMSO and was diluted to a starting stock concentration of 2.56 mg/mL.
# (§3) The test organisms and reference isolates were streaked for isolation on Sabouraud agar medium (yeasts) or potato dextrose agar (fungi). Colonies were picked by swab from the medium and resuspended in the appropriate broth containing cryoprotectant. The suspensions were aliquoted into cryogenic vials and maintained at −80° C.
# (§4) Prior to testing, the yeast isolates were streaked from the frozen vials onto Sabouraud dextrose agar. The plates were incubated overnight at 35° C. The fungal isolate was grown on potato dextrose agar slants and was incubated for 7-10 days at room temperature.
# (§5) Both yeast and fungal isolates were tested in RPMI medium buffered with 0.165 M MOPS (3-(N-morpholino)propanesulfonic acid). The pH of the medium was adjusted to 7.0 with 1 N NaOH. The medium was sterile filtered using a 0.2 um PES (polyethersulfone) filter and stored at 4° C. until used.
# (§6) The MIC assay method followed the procedure described by the Clinical and Laboratory Standards Institute (CLSI; 1, 2, 3) and employed automated liquid handlers to conduct serial dilutions and liquid transfers. Automated liquid handlers included the Multidrop 384 (Labsystems, Helsinki, Finland), Biomek 2000 and Biomek FX (Beckman Coulter, Fullerton Calif.). The wells in columns 2-12 in standard 96-well microdilution plates (Costar 3795) were filled with 150 ul of 100% DMSO. These would become the ‘mother plates’ from which ‘daughter’ or test plates would be prepared. The compounds (300 uL at 40× the desired top concentration in the test plates) were dispensed into the appropriate well in Column 1 of the mother plates. The Biomek 2000 was used to make serial 1:1 dilutions through Column 11 in the “mother plate”. The wells of Column 12 contained no compounds and were the organism growth control wells.
# (§7) The daughter plates were loaded with 185 uL per well of RPMI described above using the Multidrop 384. The daughter plates were prepared using the Biomek FX which transferred 5 μL of the compound solution from each well of a mother plate to the corresponding well of the daughter plate in a single step.
# (§8) Standardized inoculum of each organism was prepared per CLSI methods. For yeast isolates, colonies were picked from the streak plate and a suspension was prepared in 0.85% saline. For the fungal isolate, 1 mL of 0.85% saline was dispensed onto the potato dextrose agar slant that had been inoculated 7-10 days previously. Using a swab, a suspension of the fungus was made. After a short time to allow the heavy particles to settle out, a small quantity of the supernatant was dispensed into 0.85% saline and the suspension adjusted to equal a 0.5 McFarland turbidity standard. Both yeast and fungal isolates were diluted 1:100 in RPMI and then transferred to compartments of sterile reservoirs divided by length (Beckman Coulter). The Biomek 2000 was used to inoculate the plates. Daughter plates were placed on the Biomek 2000 work surface reversed so that inoculation took place from low to high compound concentration. The Biomek 2000 delivered 10 μL of standardized inoculum into each well. Thus, the wells of the daughter plates ultimately contained 185 uL of RPMI, 5 uL of the compound solution, and 10 uL of inoculum. […]
# Candida glabrata = experiment: as above; type: cell-based; conditions: Nakaseomyces glabratus, read-out: Minimum Inhibitory Concentrations against Yeast Isolates, Candida glabrata;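 further: two read times 24 hr and 48 hr of incubation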
# Method: as §1, §2, §3, §4, §5, §6, §7, §8
# Candida parapsilosis = experiment: as above; type: cell-based; conditions: Lodderomyces parapsilosis, read-out: Minimum Inhibitory Concentrations against Yeast Isolates, Candida parapsilosis;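 further: two read times 24 hr and 48 hr of incubation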
# Method: as §1, §2, §3, §4, §5, §6, §7, §8
# C. glabrata = experiment: Checkerboard FIC assay in combination with fluconazole (MIC alone and in combination, FICI); type: cell-based, Candida glabrata; conditions: for FICI of combination resulting in fluconazole MIC of: 2 ug/mL / FICI of combination resulting in fluconazole MIC of: 4 ug/mL / FICI of combination resulting in fluconazole MIC of: 8 ug/mL: FICI calculated using a fluconazole MIC of 16 μg/mL; for FICI of combination resulting in fluconazole MIC of: 2 ug/mL (value in parenthesis) / FICI of combination resulting in fluconazole MIC of: 4 ug/mL (value in parenthesis) / FICI of combination resulting in fluconazole MIC of: 8 ug/mL (value in parenthesis): FICI using a fluconazole MIC of 128 μg/mL; for MIC: Nakaseomyces glabratus; for Multiple of compound MIC to synergize fluconazole MIC to 2 ug/mL / Multiple of compound MIC to synergize fluconazole MIC to 4 ug/mL / Multiple of compound MIC to synergize fluconazole MIC to 8 ug/mL: concentration in combination as multiple of the compound's MIC alone; for Multiple of compound MIC to synergize fluconazole MIC to 2 ug/mL: fluconazole MIC 2 ug/mL; for Multiple of compound MIC to synergize fluconazole MIC to 4 ug/mL: fluconazole MIC 4 ug/mL; for Multiple of compound MIC to synergize fluconazole MIC to 8 ug/mL: fluconazole MIC 8 ug/mL; for Concentration of Methylgene compound to synergize fluconazole MIC to 2 ug/mL / Concentration of Methylgene compound to synergize fluconazole MIC to 4 ug/mL / Concentration of Methylgene compound to synergize fluconazole MIC to 8 ug/mL: in combination with fluconazole; for Concentration of Methylgene compound to synergize fluconazole MIC to 2 ug/mL: fluconazole MIC lowered to 2 ug/mL; for Concentration of Methylgene compound to synergize fluconazole MIC to 4 ug/mL: fluconazole MIC lowered to 4 ug/mL; for Concentration of Methylgene compound to synergize fluconazole MIC to 8 ug/mL: fluconazole MIC lowered to 8 ug/mL
# Method: The ability of the compounds to synergize with azoles against C. glabrata was evaluated by the checkerboard assay, a common laboratory method used to evaluate synergy, antagonism, and indifference using fractional inhibitory concentrations (FICs) and FIC indices (FICI).
# The test compounds were supplied as a powder and dissolved in dimethylsulfoxide (DMSO) on the day of assay. Stock solutions were prepared at 640 ug/mL. Fluconazole was dissolved in deionized water to a stock concentration of 320 ug/mL. All test articles were in solution under these conditions.
# as §3, §4, §5
# FIC values were determined using a broth microdilution method (CLSI; 1, 3). To prepare the test plates, automated liquid handlers (Multidrop 384, Labsystems, Helsinki, Finland; Biomek 2000 and Biomek FX, Beckman Coulter, Fullerton Calif.) were used to conduct serial dilutions and liquid transfers.
# The wells of standard 96-well microdilution plates (Costar 3795) were filled with 150 uL of DMSO in columns 2-12. Three hundred microliters of each test compound was added to each well in Column 1 of the plates. The Biomek 2000 was used to make eleven 2-fold serial dilutions in each of these “test compound mother” plates. The wells of the “fluconazole mother plates” were filled with 150 uL of sterile water in rows B-H. Row A of these plates was filled with 300 uL of the fluconazole stock solution. Serial 2-fold dilutions were then prepared from top to bottom by hand, using a multichannel pipette in rows B-G. The “daughter plates” were loaded with 180 uL of RPMI using the Multidrop 384. The Biomek FX was used to transfer 5 uL of compound solution from each well of a fluconazole mother plate to the corresponding well in all of the daughter plates in a single step. Then the Biomek FX was used to transfer 5 uL of compound solution from each well of a test compound mother plate to the corresponding well of the corresponding test compound daughter plate (already containing fluconazole at the appropriate concentrations) in a single step. Row H and Column 12 each contained serial dilutions of the test agent and fluconazole alone, respectively, for determination of the MIC.
# Standardized inoculum of each organism was prepared per CLSI methods (CLSI; 1, 3). For yeast isolates, colonies were picked from the primary plate and a suspension was prepared in 0.85% saline to equal a 0.5 McFarland turbidity standard. For the fungal isolate, 1 mL of 0.85% saline was dispensed onto a potato dextrose agar slant onto which the isolate had been inoculated 7-10 days previously. Using a swab, a suspension of the fungus was made. After a short time to allow the heavy particles to settle out, a small quantity of the supernatant was dispensed into 0.85% saline and the suspension was adjusted to equal a 0.5 McFarland turbidity standard. Both yeast and fungal isolates were diluted 1:100 in RPMI and then transferred to compartments of sterile reservoirs divided by length (Beckman Coulter). The Biomek 2000 was used to inoculate the plates. […]
# [1] = 24 hr reading (first value of cell 24 hr/48 hr)
# [2] = 48 hr reading (second value of cell 24 hr/48 hr)
# [3] = MIC of the example compound alone against C. glabrata in the checkerboard assay, approximately 48 hr, read-out: Methylgene MIC
# [4] = test compound alone, C. glabrata, approx. 48 hr at 35° C., read-out: Compound MIC
MIC (Candida albicans; [1]) [µg/mL],MIC (Candida albicans; [2]) [µg/mL],MIC (Candida glabrata; [1]) [µg/mL],MIC (Candida glabrata; [2]) [µg/mL],MIC (Candida parapsilosis; [1]) [µg/mL],MIC (Candida parapsilosis; [2]) [µg/mL],FICI of combination resulting in fluconazole MIC of: 2 ug/mL (C. glabrata; C. glabrata),FICI of combination resulting in fluconazole MIC of: 4 ug/mL (C. glabrata; C. glabrata),FICI of combination resulting in fluconazole MIC of: 8 ug/mL (C. glabrata; C. glabrata),FICI of combination resulting in fluconazole MIC of: 2 ug/mL (value in parenthesis) (C. glabrata; C. glabrata),FICI of combination resulting in fluconazole MIC of: 4 ug/mL (value in parenthesis) (C. glabrata; C. glabrata),FICI of combination resulting in fluconazole MIC of: 8 ug/mL (value in parenthesis) (C. glabrata; C. glabrata),MIC (C. glabrata; [3]) [µg/mL],MIC (C. glabrata; [4]) [µg/mL],Multiple of compound MIC to synergize fluconazole MIC to 2 ug/mL (C. glabrata),Multiple of compound MIC to synergize fluconazole MIC to 4 ug/mL (C. glabrata),Multiple of compound MIC to synergize fluconazole MIC to 8 ug/mL (C. glabrata),Concentration of Methylgene compound to synergize fluconazole MIC to 2 ug/mL (C. glabrata; C. glabrata) [µg/mL],Concentration of Methylgene compound to synergize fluconazole MIC to 4 ug/mL (C. glabrata; C. glabrata) [µg/mL],Concentration of Methylgene compound to synergize fluconazole MIC to 8 ug/mL (C. glabrata; C. glabrata) [µg/mL],SMILES
32,32,8,16,> 32,> 32,0.313,0.250,0.313,0.266,0.156,0.125,16,16,(¼x),(⅛x),( 1/16x),4,2,1,"O=C(Cc1ccc(CCCC(=O)c2ccccc2)cc1)NO [Example 28, N-hydroxy-2-(4-(4-oxo-4-phenylbutyl)phenyl)acetamide]"
> 8,> 8,0.5,> 8,> 8,> 8,> 0.125,> 0.188,> 0.281,> 0.078,> 0.094,> 0.094,> 4,> 4,–,–,–,0.5,0.5,0.25,"O=C(Cc1ccc(CCCCc2ccc(CC(=O)NO)cc2)cc1)NO [Example 7, 2,2′-(4,4′-(butane-1,4-diyl)bis(4,1-phenylene))bis(N-hydroxyacetamide)]"
> 64,> 64,16,64,> 64,> 64,0.563,0.375,0.375,0.516,0.281,0.188,> 16,> 16,–,–,–,16,8,4,"O=C(Cc1ccc(CCCC(O)c2ccccc2)cc1)NO (centres unmarked) [Example 25, N-hydroxy-2-(4-(4-hydroxy-4-phenylbutyl)phenyl)acetamide]"
1,2,0.5,1,1,2,0.563,0.625,0.500,0.516,0.531,0.313,1,1,(½x),(½x),(¼x),0.5,0.5,0.25,"O=C(Cc1ccc(CCCC(F)(F)c2ccccc2)cc1)NO [Example 29, 2-(4-(4,4-difluoro-4-phenylbutyl)phenyl)-N-hydroxyacetamide]"
